We go through 15 compounds from patent US8163724B2, “Glucocorticosteroids, processes for their preparation, pharmaceutical compositions containing them and their use in therapy” (AstraZeneca AB, priority 2007, dated 2012).

This experiment addresses T1, recombinant human GR (Homo sapiens, UniProt P04150).
T1 construct: purchased Panvera/Invitrogen P2812 (kit P2893)
T1 sequence (P04150 1-777): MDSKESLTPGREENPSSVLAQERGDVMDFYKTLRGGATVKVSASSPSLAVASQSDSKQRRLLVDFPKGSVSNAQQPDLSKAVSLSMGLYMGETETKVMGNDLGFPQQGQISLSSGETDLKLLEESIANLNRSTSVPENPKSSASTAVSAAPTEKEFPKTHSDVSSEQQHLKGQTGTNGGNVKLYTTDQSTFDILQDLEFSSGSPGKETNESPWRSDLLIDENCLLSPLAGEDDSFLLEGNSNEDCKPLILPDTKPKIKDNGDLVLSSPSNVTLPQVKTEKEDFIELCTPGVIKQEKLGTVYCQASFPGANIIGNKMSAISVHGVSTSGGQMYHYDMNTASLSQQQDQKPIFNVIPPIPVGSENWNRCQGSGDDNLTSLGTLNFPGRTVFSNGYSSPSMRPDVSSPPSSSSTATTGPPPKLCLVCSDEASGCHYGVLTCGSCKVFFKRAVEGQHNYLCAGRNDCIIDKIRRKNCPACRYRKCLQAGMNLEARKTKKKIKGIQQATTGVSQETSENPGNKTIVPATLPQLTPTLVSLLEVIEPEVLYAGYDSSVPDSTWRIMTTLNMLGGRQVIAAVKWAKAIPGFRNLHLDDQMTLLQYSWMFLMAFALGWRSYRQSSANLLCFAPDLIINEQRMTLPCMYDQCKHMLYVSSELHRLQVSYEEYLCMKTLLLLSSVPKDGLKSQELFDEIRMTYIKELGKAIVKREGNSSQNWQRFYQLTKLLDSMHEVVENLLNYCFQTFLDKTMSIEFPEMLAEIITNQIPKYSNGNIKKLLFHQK
Nature of the experiment: Human Glucocorticoid Receptor (GR) Assay (fluorescence polarization, Panvera/Invitrogen kit). It counts as binding. The gist of the method: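 Fluorescence polarization competition with recombinant GR and GS Red fluorescent ligand plus stabilizing peptide and DTT in potassium phosphate/sodium molybdate/EDTA buffer with DMSO. Incubated 2 hours at room temperature in the dark; 0% control DMSO, 100% control 10 μM dexamethasone.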
(In general: Fluorescence polarisation rises when a labelled molecule tumbles more slowly, as on binding a larger partner.)

Setting [1] is: fluorescence polarization, GS Red tracer, 2 hours at room temperature, 100% control 10 μM Dexamethasone, read-out: Inhibition of GR binding, IC50.

Read-outs that look alike come from different tables or passages of the source.

As to `COCCC(=O)O[C@]1(C(=O)SCF)CC[C@H]2[C@@H]3CCC4=Cc5c(cnn5-c5ccc(F)cc5)C[C@]4(C)[C@H]3[C@@H](O)C[C@@]21C` [Example 63, (1R,3aS,3bS,10aR,10bS,11S,12aS)-1-{[(Fluoromethyl)thio]carbonyl}-7-(4-fluorophenyl)-11-hydroxy-10a,12a-dimethyl-1,2,3,3a,3b,4,5,7,10,10a,10b,11,12,12a-tetradecahydropcyclopenta[5,6]naphtho[1,2-f]indazol-1-yl 3-methoxypropanoate], the IC50 (usually the point on the concentration scale where inhibition reaches its midpoint) under setting [1] worked out at 3.3 nM.
On the same count and under the same terms, in the case of `CCC(=O)O[C@]1(C(=O)SCF)CC[C@H]2[C@@H]3CCC4=Cc5c(cnn5-c5ccc(F)nc5)C[C@]4(C)[C@@]3(F)[C@@H](O)C[C@@]21C` [Example 204, (1R,3aS,3bS,10aS,10bR,11S,12aS)-1-{[(Fluoromethyl)sulfanyl]carbonyl}-10b-fluoro-7-(6-fluoropyridin-3-yl)-11-hydroxy-10a,12a-dimethyl-1,2,3,3a,3b,4,5,7,10,10a,10b,11,12,12a-tetradecahydrocyclopenta[5,6]naphtho[1,2-f]indazol-1-yl propanoate] it was 3.3 nM.
Still for that read-out and setting: the same measure for `C[C@]12Cc3cnn(-c4ccc(F)cc4)c3C=C1CC[C@@H]1[C@@H]2[C@@H](O)C[C@@]2(C)[C@H]1CC[C@]2(OC(=O)c1nccs1)C(=O)SCF` [Example 42, (1R,3aS,3bS,10aR,10bS,11S,12aS)-1-{[(Fluoromethyl)thio]carbonyl}-7-(4-fluoro-phenyl)-11-hydroxy-10a,12a-dimethyl-1,2,3,3a,3b,4,5,7,10,10a,10b,11,12,12a-tetradecahydrocyclopenta[5,6]naphtho[1,2-f]indazol-1-yl 1,3-thiazole-2-carboxylate]: 3.2 nM.
Regarding `Cc1occc1C(=O)O[C@]1(C(=O)SCCO)CC[C@H]2[C@@H]3CCC4=Cc5c(cnn5-c5ccc(F)cc5)C[C@]4(C)[C@H]3[C@@H](O)C[C@@]21C` [Example 55, (1R,3aS,3bS,10aR,10bS,11S,12aS)-7-(4-Fluorophenyl)-11-hydroxy-1-{[(2-hydroxy-ethyl)thio]carbonyl}-10a,12a-dimethyl-1,2,3,3a,3b,4,5,7,10,10a,10b,11,12,12a-tetradecahydrocyclopenta[5,6]naphtho[1,2-f]indazol-1-yl 2-methylfuran-3-carboxylate], the IC50 worked out at 7 nM.
`C[C@]12Cc3cnn(-c4ccc(F)cc4)c3C=C1CC[C@@H]1[C@@H]2[C@@H](O)C[C@@]2(C)[C@H]1CC[C@]2(OC(=O)c1ccco1)C(=O)SCCCC#N` [Example 86, (1R,3aS,3bS,10aR,10bS,11S,12aS)-1-{[(3-Cyanopropyl)sulfanyl]carbonyl}-7-(4-fluorophenyl)-11-hydroxy-10a,12a-dimethyl-1,2,3,3a,3b,4,5,7,10,10a,10b,11,12,12a-tetradecahydrocyclopenta[5,6]naphtho[1,2-f]indazol-1-yl furan-2-carboxylate]: under setting [1], the IC50 was 3.5 nM.
On the same count and under the same terms, in the case of `CSC(=O)[C@@]1(OC(=O)C2CC2)CC[C@H]2[C@@H]3CCC4=Cc5c(cnn5-c5ccc(F)nc5)C[C@]4(C)[C@H]3[C@@H](O)C[C@@]21C` [Example 153, (1R,3aS,3bS,10aR,10bS,11S,12aS)-7-(6-Fluoropyridin-3-yl)-11-hydroxy-10a,12a-dimethyl-1-[(methylsulfanyl)carbonyl]-1,2,3,3a,3b,4,5,7,10,10a,10b,11,12,12a-tetradecahydrocyclopenta[5,6]naphtho[1,2-f]indazol-1-yl cyclopropanecarboxylate] it was 2.4 nM; in that of `CCC(=O)O[C@]1(C(=O)SCCO)CC[C@H]2[C@@H]3CCC4=Cc5c(cnn5-c5ccc(F)cc5)C[C@]4(C)[C@H]3[C@@H](O)C[C@@]21C` [Example 15, (1R,3aS,3bS,10aR,10bS,11S,12aS)-7-(4-Fluorophenyl)-11-hydroxy-1-{[(2-hydroxyethyl)thio]carbonyl}-10a,12a-dimethyl-1,2,3,3a,3b,4,5,7,10,10a,10b,11,12,12a-tetradecahydropcyclopenta[5,6]naphtho[1,2-f]indazol-1-yl propanoate], 3.7 nM; in that of `Cc1ncsc1C(=O)O[C@]1(C(=O)SCF)CC[C@H]2[C@@H]3CCC4=Cc5c(cnn5-c5ccc(F)cc5)C[C@]4(C)[C@H]3[C@@H](O)C[C@@]21C` [Example 1, (1R,3aS,3bS,10aR,10bS,11S,12aS)-1-{[(Fluoromethyl)thio]carbonyl}-7-(4-fluorophenyl)-11-hydroxy-10a,12a-dimethyl-1,2,3,3a,3b,4,5,7,10,10a,10b,11,12,12a-tetradecahydrocyclopenta[5,6]naphtho[1,2-f]indazol-1-yl 4-methyl-1,3-thiazole-5-carboxylate], 7.6 nM.
Still for that read-out and setting: the same measure for `CCC(=O)O[C@]1(C(=O)SCC#N)CC[C@H]2[C@@H]3CCC4=Cc5c(cnn5-c5ccc(F)nc5)C[C@]4(C)[C@@]3(F)[C@@H](O)C[C@@]21C` [Example 203, (1R,3aS,3bS,10aS,10bR,11S,12aS)-1-{[(Cyanomethyl)sulfanyl]carbonyl}-10b-fluoro-7-(6-fluoropyridin-3-yl)-11-hydroxy-10a,12a-dimethyl-1,2,3,3a,3b,4,5,7,10,10a,10b,11,12,12a-tetradecahydrocyclopenta[5,6]naphtho[1,2-f]indazol-1-yl propanoate]: 2.3 nM; for `C[C@]12Cc3cnn(-c4ccc(F)cc4)c3C=C1CC[C@@H]1[C@@H]2[C@@H](O)C[C@@]2(C)[C@H]1CC[C@]2(OC(=O)c1ccco1)C(=O)SCC#N` [Example 7, (1R,3aS,3bS,10aR,10bS,11S,12aS)-1-{[(Cyanomethyl)thio]carbonyl}-7-(4-fluorophenyl)-11-hydroxy-10a,12a-dimethyl-1,2,3,3a,3b,4,5,7,10,10a,10b,11,12,12a-tetradecahydrocyclopenta[5,6]naphtho[1,2-f]indazol-1-yl 2-furoate]: 5.6 nM; for `Cn1cc(C(=O)O[C@]2(C(=O)SCC#N)CC[C@H]3[C@@H]4CCC5=Cc6c(cnn6-c6ccc(F)cc6)C[C@]5(C)[C@H]4[C@@H](O)C[C@@]32C)nn1` [Example 47, (1R,3aS,3bS,10aR,10bS,11S,12aS)-1-{[(Cyanomethyl)thio]carbonyl}-7-(4-fluoro-phenyl)-11-hydroxy-10a,12a-dimethyl-1,2,3,3a,3b,4,5,7,10,10a,10b,11,12,12a-tetradecahydrocyclopenta[5,6]naphtho[1,2-f]indazol-1-yl 1-methyl-1H-1,2,3-triazole-4-carboxylate]: 2.5 nM.
Same read-out and setting: the same measure for `CCOC(=O)[C@@]1(O)CC[C@H]2[C@@H]3CCC4=Cc5c(cnn5-c5ccc(F)cc5)C[C@]4(C)[C@H]3[C@@H](O)C[C@@]21C` [Example 104, Ethyl (1R,3aS,3bS,10aR,10bS,11S,12aS)-7-(4-fluorophenyl)-1,11-dihydroxy-10a,12a-dimethyl-1,2,3,3a,3b,4,5,7,10,10a,10b,11,12,12a-tetradecahydrocyclopenta[5,6]naphtho[1,2-f]indazole-1-carboxylate]: 4.2 nM; for `C[C@]12Cc3cnn(-c4cnccn4)c3C=C1CC[C@@H]1[C@@H]2[C@@H](O)C[C@@]2(C)[C@H]1CC[C@]2(OC(=O)C1CC1)C(=O)SCC#N` [Example 189, (1R,3aS,3bS,10aR,10bS,11S,12aS)-1-{[(Cyanomethyl)sulfanyl]carbonyl}-11-hydroxy-10a,12a-dimethyl-7-pyrazin-2-yl-1,2,3,3a,3b,4,5,7,10,10a,10b,11,12,12a-tetradecahydrocyclopenta[5,6]naphtho[1,2-f]indazol-1-yl cyclopropanecarboxylate]: 5 nM.
Regarding `C[C@]12Cc3cnn(-c4ccc(F)cc4F)c3C=C1CC[C@@H]1[C@@H]2[C@@H](O)C[C@@]2(C)[C@H]1CC[C@]2(OC(=O)c1ccco1)C(=O)SCC#N` [Example 101, (1R,3aS,3bS,10aR,10bS,11S,12aS)-1-{[(Cyanomethyl)thio]carbonyl}-7-(2,4-difluorophenyl)-11-hydroxy-10a,12a-dimethyl-1,2,3,3a,3b,4,5,7,10,10a,10b,11,12,12a-tetradecahydrocyclopenta[5,6]naphtho[1,2-f]indazol-1-yl furan-2-carboxylate], the IC50 under setting [1] stood at 29 nM.
On to `COCC(=O)O[C@]1(C(=O)SCF)CC[C@H]2[C@@H]3C[C@H](C)C4=Cc5c(cnn5-c5ccc(F)cc5)C[C@]4(C)[C@H]3[C@@H](O)C[C@@]21C` [Example 216, (1R,3aS,3bS,5S,10aR,10bS,11S,12aS)-1-{[(Fluoromethyl)sulfanyl]carbonyl}-7-(4-fluorophenyl)-11-hydroxy-5,10a,12a-trimethyl-1,2,3,3a,3b,4,5,7,10,10a,10b,11,12,12a-tetradecahydrocyclopenta[5,6]naphtho[1,2]-indazol-1-yl methoxyacetate], for which the IC50 under setting [1] was found to be 8.8 nM.
